Reference: paper PMC6514978, “Synthesis, Antibacterial Activities, Mode of Action and Acute Toxicity Studies of New Oxazolidinone-Fluoroquinolone Hybrids” (Molecules, 2019)
Values after ≈ are worked out from the molar mass of the structure shown.

Assays:
[1] = tested on: VRE (13B330); assay: MIC, broth microdilution (CLSI), clinical isolate; format: cell-based, vancomycin-resistant enterococcus; conditions: Enterococcus
Source text: (§1) 6 standard strains and 3 clinical isolates were used to the preliminary evaluation of in vitro antibacterial activities of oxazolidinone-fluoroquinolone hybrids. For the further evaluation of hybrids OBP-4 and OBP-5, 263 clinical isolates including S. aureus (46), S. haemolyticus(32), S. epidermidis (10), E. faecalis (72), E. faecium (47), S. pneumoniae (13), H. parasuis (34), S. suis (9), and 8 resistant strains including MRSA, MRSE, CIP-resistant S. aureus and S. haemolyticus, VAN and quinolone-resistant S. pneumoniae, LZD-resistant E. faecalis, LZD/VAN and quinolone-resistant E. faecium were collected and tested.
(§2) Susceptibility testing of oxazolidinone-fluoroquinolone hybrids against various bacteria was performed by the broth microdilution method as outlined by the Clinical and Laboratory Standards Institute (CLSI). Three types of media, including cation-adjusted Mueller Hinton broth, Haemophilus Test Medium and cation-adjusted Mueller Hinton broth that contained 3%–5% lysed horse blood, were used to culture the corresponding bacteria. All compounds including comparator drugs were dissolved in an appropriate solvent at a concentration of 2.048 mg/mL and then serially diluted two-fold to provide the required concentrations. A final inoculum of 5 × 10^5 CFU/mL was used and plates were read after incubation for 16–24 h at 35 °C. […] Standard quality control strains (ATCC) were included throughout. Each determination was repeated in triplicate.

[2] = tested on: E. coli (ATCC25922); assay: MIC, broth microdilution (CLSI), standard strain; format: cell-based; conditions: Escherichia coli; E. coli (ATCC25922); read-out: MIC
Source text: as §1, §2

[3] = tested on: E. faecalis (ATCC29212); assay: MIC, broth microdilution (CLSI), standard strain; format: cell-based; conditions: Enterococcus faecalis; E. faecalis (ATCC29212); read-out: MIC
Source text: as §1, §2

[4] = tested on: H. influenzae (ATCC49247); assay: MIC, broth microdilution (CLSI), standard strain; format: cell-based; conditions: Haemophilus influenzae
Source text: as §1, §2

[5] = tested on: P. Aeruginosa (ATCC27853); assay: MIC, broth microdilution (CLSI), standard strain; format: cell-based; conditions: Pseudomonas aeruginosa; P. Aeruginosa (ATCC27853); read-out: MIC
Source text: as §1, §2

[6] = tested on: S. aureus (ATCC29213); assay: MIC, broth microdilution (CLSI), standard strain; format: cell-based; conditions: Staphylococcus aureus
Source text: as §1, §2

[7] = tested on: S. pneumoniae (ATCC49619); assay: MIC, broth microdilution (CLSI), standard strain; format: cell-based; conditions: Streptococcus pneumoniae
Source text: as §1, §2

[8] = tested on: S. epidermidis (10) clinical isolates; assay: Susceptibility of clinical isolates (MIC); format: cell-based, Staphylococcus epidermidis; conditions: for Cumulative % of strains inhibited at MIC / No. of strains inhibited at MIC: S. epidermidis (10)
Description: as §2, with “All compounds including comparator drugs were dissolved in an appropriate solvent at a concentration of 2.048 mg/mL and then serially diluted two-fold to provide the required concentrations.” left out

[9] = tested on: S. suis (9) clinical isolates; assay: Susceptibility of clinical isolates (MIC); format: cell-based, Streptococcus suis; conditions: for Cumulative % of strains inhibited at MIC / No. of strains inhibited at MIC: S. suis (9)
Description: as §2, with “All compounds including comparator drugs were dissolved in an appropriate solvent at a concentration of 2.048 mg/mL and then serially diluted two-fold to provide the required concentrations.” left out

[10] = tested on: E. faecalis (72) clinical isolates; assay: Susceptibility of clinical isolates (MIC); format: cell-based, Enterococcus faecalis; conditions: for Cumulative % of strains inhibited at MIC / No. of strains inhibited at MIC: E. faecalis (72)
Description: as §2, with “All compounds including comparator drugs were dissolved in an appropriate solvent at a concentration of 2.048 mg/mL and then serially diluted two-fold to provide the required concentrations.” left out

[11] = tested on: E. faecium (47) clinical isolates; assay: Susceptibility of clinical isolates (MIC); format: cell-based, Enterococcus faecium; conditions: for Cumulative % of strains inhibited at MIC / No. of strains inhibited at MIC: E. faecium (47)
Description: as §2, with “All compounds including comparator drugs were dissolved in an appropriate solvent at a concentration of 2.048 mg/mL and then serially diluted two-fold to provide the required concentrations.” left out

[12] = tested on: H. parasuis (34) clinical isolates; assay: Susceptibility of clinical isolates (MIC); format: cell-based, Haemophilus parasuis; conditions: for Cumulative % of strains inhibited at MIC / No. of strains inhibited at MIC: H. parasuis (34)
Description: as §2, with “All compounds including comparator drugs were dissolved in an appropriate solvent at a concentration of 2.048 mg/mL and then serially diluted two-fold to provide the required concentrations.” left out

[13] = tested on: LZD-resistant E. faecalis; assay: microbe, parasite or virus in culture; format: cell-based; conditions: Enterococcus faecalis
Description: 6 standard strains and 3 clinical isolates were used to the preliminary evaluation of in vitro antibacterial activities of oxazolidinone-fluoroquinolone hybrids.
as §2, with “All compounds including comparator drugs were dissolved in an appropriate solvent at a concentration of 2.048 mg/mL and then serially diluted two-fold to provide the required concentrations.” left out

[14] = tested on: protein synthesis (E. coli extract-based cell-free protein expression system); assay: In vitro transcription/translation assay (S30 T7 cell-free system, Renilla luciferase); format: biochemical; conditions: E. coli S30 T7 cell-free transcription/translation, 1 h, 37 °C; read-out: IC50 Inhib. of Protein Synthesis
Description: The influence of hybrids OBP-4 and OBP-5 against protein synthesis was confirmed by the S30 T7 High-Yield Protein Expression System (Promega Co., Ltd.). The S30 T7 High-Yield Protein Expression System is an E. coli extract-based cell-free protein expression system, which can effectively transcribe and translate DNA fragments with a T7 promoter. The reaction system containing 1 μg plasmid DNA, 20 μL S30 Premix Plus and 18 μL T7 S30 Extract with or without compounds was incubated for 1 h at 37 °C with a rotational speed of 250 rpm, and terminated by cooling in ice for 5 min in a 96-well white multi-well plate. Then, 1.25 μL of the translation reaction mixture was added to 48.75 μL of Renilla Luciferase Assay Lysis Buffer, and mixed with 50 μL of Renilla Luciferase Assay Reagent (cat no. E2810; Promega). Renilla luciferase activity was measured on EnSpire® Multimode Plate Reader (PerkinElmer, Waltham, MA, USA). […] LZD was used as a positive control.

[15] = Enterococcus faecalis, E. faecalis, 72 clinical isolates

C[C@H]1CCc2c(N3CCC(O)(COc4ccc(N5C[C@H](CO)OC5=O)cc4F)CC3)c(F)cc3c(=O)c(C(=O)O)cn1c23 [OBP-4]
MIC [1]: 0.25 µg/mL (≈ 0.417 µM) | MIC [2]: 4 µg/mL (≈ 6.67 µM) | MIC [3]: 0.25 µg/mL (≈ 0.417 µM) | MIC [4]: 0.25 µg/mL (≈ 0.417 µM) | MIC [5]: 64 µg/mL (≈ 107 µM) | MIC [6]: 0.016 µg/mL (≈ 0.0267 µM) | MIC [7]: 0.031 µg/mL (≈ 0.0517 µM) | Cumulative % of strains inhibited at MIC ([8]; MIC 0.125 µg/mL): 60.0% | No. of strains inhibited at MIC ([8]; MIC 0.125 µg/mL): 4 | Cumulative % of strains inhibited at MIC ([8]; MIC […]): 100.0% | No. of strains inhibited at MIC ([8]; MIC […]): 4 | Cumulative % of strains inhibited at MIC ([8]; MIC ≤[…]): 20.0% | No. of strains inhibited at MIC ([8]; MIC ≤[…]): 2 | MIC50 ([8]; Staphylococcus epidermidis, S. epidermidis, 10 clinical isolates, read-out: MIC50): 0.125 µg/mL (≈ 0.208 µM) | MIC90 ([8]; Staphylococcus epidermidis, S. epidermidis, 10 clinical isolates, read-out: MIC90): 0.25 µg/mL (≈ 0.417 µM) | MIC ([8]; Staphylococcus epidermidis, S. epidermidis, 10 clinical isolates, read-out: MIC Range): 0.0625 to 0.25 µg/mL (≈ 0.104 to 0.417 µM) | Cumulative % of strains inhibited at MIC ([9]; MIC 0.125 µg/mL): 77.8% | No. of strains inhibited at MIC ([9]; MIC 0.125 µg/mL): 2 | Cumulative % of strains inhibited at MIC ([9]; MIC 2 µg/mL): 100% | No. of strains inhibited at MIC ([9]; MIC 2 µg/mL): 1 | Cumulative % of strains inhibited at MIC ([9]; MIC […]): 88.9% | No. of strains inhibited at MIC ([9]; MIC […]): 1 | Cumulative % of strains inhibited at MIC ([9]; MIC ≤[…]): 55.6% | No. of strains inhibited at MIC ([9]; MIC ≤[…]): 5 | MIC50 ([9]; Streptococcus suis, S. suis, 9 clinical isolates, read-out: MIC50): ≤ 0.0625 µg/mL | MIC90 ([9]; Streptococcus suis, S. suis, 9 clinical isolates, read-out: MIC90): 0.25 µg/mL (≈ 0.417 µM) | MIC ([9]; Streptococcus suis, S. suis, 9 clinical isolates, read-out: MIC Range): 0.0625 to 2 µg/mL (≈ 0.104 to 3.34 µM) | Cumulative % of strains inhibited at MIC ([10]; MIC 0.125 µg/mL): 36.1% | No. of strains inhibited at MIC ([10]; MIC 0.125 µg/mL): 17 | Cumulative % of strains inhibited at MIC ([10]; MIC 0.5 µg/mL): 98.6% | No. of strains inhibited at MIC ([10]; MIC 0.5 µg/mL): 2 | Cumulative % of strains inhibited at MIC ([10]; MIC 1 µg/mL): 100.0% | No. of strains inhibited at MIC ([10]; MIC 1 µg/mL): 1 | Cumulative % of strains inhibited at MIC ([10]; MIC […]): 95.8% | No. of strains inhibited at MIC ([10]; MIC […]): 43 | Cumulative % of strains inhibited at MIC ([10]; MIC ≤[…]): 12.5% | No. of strains inhibited at MIC ([10]; MIC ≤[…]): 9 | fold higher activity than comparator agents ([10]; E. faecalis clinical isolates): 2- to 16 fold | MIC Range ([10]; E. faecalis, 72 clinical isolates): ≤0.0625 to 1 µg/mL | MIC50 [10, 15]: 0.25 µg/mL (≈ 0.417 µM) | MIC90 [10, 15]: 0.25 µg/mL (≈ 0.417 µM) | Cumulative % of strains inhibited at MIC ([11]; MIC 0.5 µg/mL): 95.7% | No. of strains inhibited at MIC ([11]; MIC 0.5 µg/mL): 37 | Cumulative % of strains inhibited at MIC ([11]; MIC 1 µg/mL): 97.9% | No. of strains inhibited at MIC ([11]; MIC 1 µg/mL): 1 | Cumulative % of strains inhibited at MIC ([11]; MIC 2 µg/mL): 100.0% | No. of strains inhibited at MIC ([11]; MIC 2 µg/mL): 1 | No. of strains inhibited at MIC ([11]; MIC […]): 8 | fold higher activity than comparator agents ([11]; E. faecium clinical isolates): 16- to 128 fold | MIC Range ([11]; E. faecium, 47 clinical isolates): 0.25 to 2 µg/mL | MIC50 ([12]; Glaesserella parasuis, H. parasuis, 34 clinical isolates, read-out: MIC50): 1 µg/mL (≈ 1.67 µM) | MIC90 ([12]; Glaesserella parasuis, H. parasuis, 34 clinical isolates, read-out: MIC90): 4 µg/mL (≈ 6.67 µM) | Cumulative % of strains inhibited at MIC ([12]; MIC 0.5 µg/mL): 35.3% | No. of strains inhibited at MIC ([12]; MIC 0.5 µg/mL): 5 | Cumulative % of strains inhibited at MIC ([12]; MIC 1 µg/mL): 61.8% | No. of strains inhibited at MIC ([12]; MIC 1 µg/mL): 9 | Cumulative % of strains inhibited at MIC ([12]; MIC 2 µg/mL): 79.4% | No. of strains inhibited at MIC ([12]; MIC 2 µg/mL): 6 | Cumulative % of strains inhibited at MIC ([12]; MIC 4 µg/mL): 100.0% | No. of strains inhibited at MIC ([12]; MIC 4 µg/mL): 7 | Cumulative % of strains inhibited at MIC ([12]; MIC […]): 20.6% | No. of strains inhibited at MIC ([12]; MIC […]): 3 | Cumulative % of strains inhibited at MIC ([12]; MIC ≤[…]): 11.8% | No. of strains inhibited at MIC ([12]; MIC ≤[…]): 4 | MIC Range ([12]; H. parasuis, 34 clinical isolates): ≤0.0625 to 4 µg/mL | MIC [13]: 1 µg/mL (≈ 1.67 µM) | IC50 [14]: 5 µM
